Source: patent EP4722207A1, “OXOISOINDOLINYL-SUBSTITUTED TETRAHYDROPYRIMIDINEDIONE DERIVATIVE AND USE THEREOF” (Gluetacs Therapeutics (Shanghai) Co., Ltd., priority 2023, dated 2024)

Tests used:
Format in all cases: cell-based
Settings in all cases: compounds at 50 nM and 500 nM, 24 hours
IKZF1 = biological target: T1, IKZF1 (Homo sapiens, UniProt Q13422+Q96SW2); assay: Western-blot assay, substrate protein degradation in hPBMCs: IKZF1
T1 construct: effects of the compounds of the present disclosure on the expression of target proteins in cells; endogenous in cells; host or cells: human PBMCs (hPBMCs)
T1 sequence (Q13422 whole entry): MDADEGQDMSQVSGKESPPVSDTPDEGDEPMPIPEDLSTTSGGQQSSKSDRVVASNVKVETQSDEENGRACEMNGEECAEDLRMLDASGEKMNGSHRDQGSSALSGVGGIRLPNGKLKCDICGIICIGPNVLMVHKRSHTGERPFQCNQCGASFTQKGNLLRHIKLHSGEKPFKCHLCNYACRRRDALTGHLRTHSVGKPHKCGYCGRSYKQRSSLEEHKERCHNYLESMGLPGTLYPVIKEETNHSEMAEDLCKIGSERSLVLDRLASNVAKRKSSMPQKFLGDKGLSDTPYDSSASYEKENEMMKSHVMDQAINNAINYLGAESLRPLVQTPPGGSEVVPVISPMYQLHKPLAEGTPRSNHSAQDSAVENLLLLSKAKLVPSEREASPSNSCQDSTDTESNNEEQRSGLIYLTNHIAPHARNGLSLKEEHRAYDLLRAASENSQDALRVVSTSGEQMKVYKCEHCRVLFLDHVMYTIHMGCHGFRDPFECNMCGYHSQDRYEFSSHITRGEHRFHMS
T1 sequence (Q96SW2 whole entry): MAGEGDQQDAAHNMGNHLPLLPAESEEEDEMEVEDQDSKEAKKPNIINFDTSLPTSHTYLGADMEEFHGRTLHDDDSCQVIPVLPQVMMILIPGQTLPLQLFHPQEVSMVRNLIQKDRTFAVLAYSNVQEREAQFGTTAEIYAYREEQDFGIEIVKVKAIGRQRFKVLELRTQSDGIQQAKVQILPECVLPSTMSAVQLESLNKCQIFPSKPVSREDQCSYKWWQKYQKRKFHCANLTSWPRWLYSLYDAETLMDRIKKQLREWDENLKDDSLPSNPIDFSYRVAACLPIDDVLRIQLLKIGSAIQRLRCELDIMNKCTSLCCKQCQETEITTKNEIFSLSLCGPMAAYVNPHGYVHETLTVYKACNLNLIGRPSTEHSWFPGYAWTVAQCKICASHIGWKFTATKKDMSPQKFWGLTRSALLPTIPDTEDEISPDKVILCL
T1 sequence (Q16531 whole entry partner): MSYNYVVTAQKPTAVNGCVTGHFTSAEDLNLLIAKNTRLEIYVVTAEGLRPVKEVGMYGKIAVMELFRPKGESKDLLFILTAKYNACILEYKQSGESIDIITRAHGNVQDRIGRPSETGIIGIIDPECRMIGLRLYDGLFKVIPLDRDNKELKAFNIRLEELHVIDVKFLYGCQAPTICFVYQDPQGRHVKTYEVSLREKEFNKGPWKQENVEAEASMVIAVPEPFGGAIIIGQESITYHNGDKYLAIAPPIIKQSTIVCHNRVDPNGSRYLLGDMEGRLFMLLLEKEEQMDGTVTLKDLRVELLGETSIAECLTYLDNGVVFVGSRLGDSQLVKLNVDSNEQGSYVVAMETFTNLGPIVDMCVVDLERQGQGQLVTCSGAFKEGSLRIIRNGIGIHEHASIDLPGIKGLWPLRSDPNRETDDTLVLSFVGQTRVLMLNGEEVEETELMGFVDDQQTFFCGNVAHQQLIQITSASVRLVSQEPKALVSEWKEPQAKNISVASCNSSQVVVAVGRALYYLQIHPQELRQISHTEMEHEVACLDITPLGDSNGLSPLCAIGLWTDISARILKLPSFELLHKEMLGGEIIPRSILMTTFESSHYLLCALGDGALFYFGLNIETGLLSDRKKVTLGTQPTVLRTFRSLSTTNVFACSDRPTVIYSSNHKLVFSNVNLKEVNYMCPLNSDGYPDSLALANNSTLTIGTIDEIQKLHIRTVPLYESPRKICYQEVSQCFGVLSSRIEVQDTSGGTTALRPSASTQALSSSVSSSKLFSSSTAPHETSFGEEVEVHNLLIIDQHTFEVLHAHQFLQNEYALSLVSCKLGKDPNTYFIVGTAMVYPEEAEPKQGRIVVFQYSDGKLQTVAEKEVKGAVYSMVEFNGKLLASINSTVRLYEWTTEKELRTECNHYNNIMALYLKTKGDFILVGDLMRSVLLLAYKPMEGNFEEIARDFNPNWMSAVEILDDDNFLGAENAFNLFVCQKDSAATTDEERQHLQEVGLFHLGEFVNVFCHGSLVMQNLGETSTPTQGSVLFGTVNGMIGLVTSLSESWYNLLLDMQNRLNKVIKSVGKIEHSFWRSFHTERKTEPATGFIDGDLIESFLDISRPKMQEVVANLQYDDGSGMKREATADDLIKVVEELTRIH

IKZF2 = biological target: T2, IKZF2 (Homo sapiens, UniProt Q96SW2+Q9UKS7); assay: Western-blot assay, substrate protein degradation in hPBMCs: IKZF2
T2 construct: effects of the compounds of the present disclosure on the expression of target proteins in cells; endogenous in cells; host or cells: human PBMCs (hPBMCs)
T2 sequence (Q9UKS7 whole entry): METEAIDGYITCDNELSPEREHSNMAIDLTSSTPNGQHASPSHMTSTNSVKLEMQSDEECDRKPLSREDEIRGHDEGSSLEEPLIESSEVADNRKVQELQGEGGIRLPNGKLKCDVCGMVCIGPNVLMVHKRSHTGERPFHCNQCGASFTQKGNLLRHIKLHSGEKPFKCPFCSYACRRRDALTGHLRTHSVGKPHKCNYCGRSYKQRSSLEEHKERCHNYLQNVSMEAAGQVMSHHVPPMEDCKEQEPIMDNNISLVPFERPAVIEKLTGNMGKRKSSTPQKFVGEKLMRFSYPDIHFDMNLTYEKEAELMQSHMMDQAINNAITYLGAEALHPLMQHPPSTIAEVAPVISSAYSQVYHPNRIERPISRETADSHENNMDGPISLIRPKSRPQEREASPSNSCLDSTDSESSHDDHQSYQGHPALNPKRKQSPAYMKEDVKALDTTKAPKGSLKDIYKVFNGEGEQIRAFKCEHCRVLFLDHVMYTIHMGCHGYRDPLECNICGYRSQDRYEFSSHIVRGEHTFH
T2 sequence (Q96SW2 whole entry): as the sequence (Q96SW2 whole entry) above
T2 sequence (Q16531 whole entry partner): as the sequence (Q16531 whole entry partner) above

IKZF3 = biological target: T3, IKZF3 (Homo sapiens, UniProt Q96SW2+Q9UKT9); assay: Western-blot assay, substrate protein degradation in hPBMCs: IKZF3
T3 construct: effects of the compounds of the present disclosure on the expression of target proteins in cells; endogenous in cells; host or cells: human PBMCs (hPBMCs)
T3 sequence (Q9UKT9 whole entry): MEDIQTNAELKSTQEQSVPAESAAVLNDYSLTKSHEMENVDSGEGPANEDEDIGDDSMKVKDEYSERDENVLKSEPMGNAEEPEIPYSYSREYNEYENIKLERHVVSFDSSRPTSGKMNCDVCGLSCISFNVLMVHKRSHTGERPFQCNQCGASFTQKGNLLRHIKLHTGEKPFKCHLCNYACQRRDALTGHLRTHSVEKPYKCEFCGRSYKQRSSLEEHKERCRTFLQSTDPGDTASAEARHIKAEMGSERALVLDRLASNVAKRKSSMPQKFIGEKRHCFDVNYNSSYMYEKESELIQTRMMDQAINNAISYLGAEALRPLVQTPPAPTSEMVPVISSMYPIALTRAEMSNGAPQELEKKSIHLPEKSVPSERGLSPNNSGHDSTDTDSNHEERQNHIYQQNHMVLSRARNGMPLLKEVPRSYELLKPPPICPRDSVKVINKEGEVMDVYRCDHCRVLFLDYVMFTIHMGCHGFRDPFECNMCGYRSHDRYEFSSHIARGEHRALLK
T3 sequence (Q96SW2 whole entry): as the sequence (Q96SW2 whole entry) above
T3 sequence (Q16531 whole entry partner): as the sequence (Q16531 whole entry partner) above

GSPT1 = biological target: T4, GSPT1 (Homo sapiens, UniProt P15170+Q96SW2); assay: Western-blot assay, substrate protein degradation in hPBMCs: GSPT1
T4 construct: effects of the compounds of the present disclosure on the expression of target proteins in cells; endogenous in cells; host or cells: human PBMCs (hPBMCs)
T4 sequence (P15170 whole entry): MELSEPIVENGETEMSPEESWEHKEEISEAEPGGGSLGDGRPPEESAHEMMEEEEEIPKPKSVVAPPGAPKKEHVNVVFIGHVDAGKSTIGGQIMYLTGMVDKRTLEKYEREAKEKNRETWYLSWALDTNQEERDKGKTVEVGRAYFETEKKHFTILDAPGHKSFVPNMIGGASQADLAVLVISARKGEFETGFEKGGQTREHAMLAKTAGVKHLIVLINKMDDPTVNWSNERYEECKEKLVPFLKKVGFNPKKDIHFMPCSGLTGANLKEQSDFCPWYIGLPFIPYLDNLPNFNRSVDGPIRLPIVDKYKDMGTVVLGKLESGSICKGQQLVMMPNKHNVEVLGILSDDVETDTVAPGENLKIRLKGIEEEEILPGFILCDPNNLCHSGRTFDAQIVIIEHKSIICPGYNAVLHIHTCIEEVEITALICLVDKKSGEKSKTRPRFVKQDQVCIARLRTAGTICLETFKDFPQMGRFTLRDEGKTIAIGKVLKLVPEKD
T4 sequence (Q96SW2 whole entry): as the sequence (Q96SW2 whole entry) above
T4 sequence (Q16531 whole entry partner): as the sequence (Q16531 whole entry partner) above

WEE1 = biological target: T5, WEE1 (Homo sapiens, UniProt P30291+Q96SW2); assay: Western-blot assay, substrate protein degradation in hPBMCs: WEE1
T5 construct: effects of the compounds of the present disclosure on the expression of target proteins in cells; endogenous in cells; host or cells: human PBMCs (hPBMCs)

CK1α = biological target: T6, CK1α (Homo sapiens, UniProt P48729+Q96SW2); assay: Western-blot assay, substrate protein degradation in hPBMCs: CK1α
T6 construct: effects of the compounds of the present disclosure on the expression of target proteins in cells; endogenous in cells; host or cells: human PBMCs (hPBMCs)
T6 sequence (P48729 whole entry): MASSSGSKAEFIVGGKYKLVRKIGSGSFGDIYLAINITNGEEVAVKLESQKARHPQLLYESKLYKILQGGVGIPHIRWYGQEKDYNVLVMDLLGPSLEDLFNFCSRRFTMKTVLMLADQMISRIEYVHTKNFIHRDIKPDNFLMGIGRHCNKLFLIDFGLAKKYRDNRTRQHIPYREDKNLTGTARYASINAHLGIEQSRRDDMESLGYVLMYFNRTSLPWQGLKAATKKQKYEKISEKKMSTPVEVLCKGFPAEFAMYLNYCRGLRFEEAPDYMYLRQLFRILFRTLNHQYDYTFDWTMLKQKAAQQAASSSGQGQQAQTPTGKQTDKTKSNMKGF
T6 sequence (Q96SW2 whole entry): as the sequence (Q96SW2 whole entry) above
T6 sequence (Q16531 whole entry partner): as the sequence (Q16531 whole entry partner) above

| Structure (SMILES) | IKZF1 substrate protein remaining % (IKZF1) | IKZF2 substrate protein remaining % (IKZF2) | IKZF3 substrate protein remaining % (IKZF3) | GSPT1 substrate protein remaining % (GSPT1) | WEE1 substrate protein remaining % (WEE1) | CK1α substrate protein remaining % (CK1α) |
| --- | --- | --- | --- | --- | --- | --- |
| Cn1cc(C2=CCN(Cc3ccc4c(c3)C(=O)N(N3CCC(=O)NC3=O)C4=O)CC2)c2ccc(F)cc21 [GT-05276, 2-(2,4-dioxotetrahydropyrimidin-1(2H)-yl)-5-((4-(6-fluoro-1-methyl-1H-indol-3-yl)-3,6-dihydropyridin-1(2H)-yl)methyl)isoindoline-1,3-dione] | B ("B" is defined as 80%< substrate protein remaining %≤ 100%) | B ("B" is defined as 80%< substrate protein remaining %≤ 100%) | A ("A" is defined as 0% ≤ substrate protein remaining % ≤ 80%) | A ("A" is defined as 0% ≤ substrate protein remaining % ≤ 80%) | B ("B" is defined as 80%< substrate protein remaining %≤ 100%) | B ("B" is defined as 80%< substrate protein remaining %≤ 100%) |
| Cc1ccc(N2CCN(Cc3ccc4c(c3)C(=O)N(N3CCC(=O)NC3=O)C4=O)CC2)s1 [GT-05309, 2-(2,4-dioxotetrahydropyrimidin-1(2H)-yl)-5-((4-(5-methylthiophen-2-yl)piperazin-1-yl)methyl)isoindoline-1,3-dione] | B ("B" is defined as 80%< substrate protein remaining %≤ 100%) | B ("B" is defined as 80%< substrate protein remaining %≤ 100%) | B ("B" is defined as 80%< substrate protein remaining %≤ 100%) | A ("A" is defined as 0% ≤ substrate protein remaining % ≤ 80%) | B ("B" is defined as 80%< substrate protein remaining %≤ 100%) | B ("B" is defined as 80%< substrate protein remaining %≤ 100%) |
| Cc1ccc(C2=CCN(Cc3ccc4c(c3)C(=O)N(N3CCC(=O)NC3=O)C4=O)CC2)s1 [GT-05310, 2-(2,4-dioxotetrahydropyrimidin-1(2H)-yl)-5-((4-(5-methylthiophen-2-yl)-3,6-dihydropyridin-1(2H)-yl)methyl)isoindoline-1,3-dione] | B ("B" is defined as 80%< substrate protein remaining %≤ 100%) | B ("B" is defined as 80%< substrate protein remaining %≤ 100%) | B ("B" is defined as 80%< substrate protein remaining %≤ 100%) | A ("A" is defined as 0% ≤ substrate protein remaining % ≤ 80%) | B ("B" is defined as 80%< substrate protein remaining %≤ 100%) | B ("B" is defined as 80%< substrate protein remaining %≤ 100%) |
| O=C1CCN(N2C(=O)c3ccc(CN4CCN(c5ccsc5)CC4)cc3C2=O)C(=O)N1 [GT-05313, 2-(2,4-dioxotetrahydropyrimidin-1(2H)-yl)-5-((4-(thiophen-3-yl)piperazin-1-yl)methyl)isoindoline-1,3-dione] | B ("B" is defined as 80%< substrate protein remaining %≤ 100%) | B ("B" is defined as 80%< substrate protein remaining %≤ 100%) | B ("B" is defined as 80%< substrate protein remaining %≤ 100%) | A ("A" is defined as 0% ≤ substrate protein remaining % ≤ 80%) | B ("B" is defined as 80%< substrate protein remaining %≤ 100%) | B ("B" is defined as 80%< substrate protein remaining %≤ 100%) |
| Cc1cscc1C1CCN(Cc2ccc3c(c2)C(=O)N(N2CCC(=O)NC2=O)C3=O)CC1 [GT-05314, 2-(2,4-dioxotetrahydropyrimidin-1(2H)-yl)-5-((4-(4-methylthiophen-3-yl)piperidin-1-yl)methyl)isoindoline-1,3-dione] | B ("B" is defined as 80%< substrate protein remaining %≤ 100%) | B ("B" is defined as 80%< substrate protein remaining %≤ 100%) | B ("B" is defined as 80%< substrate protein remaining %≤ 100%) | A ("A" is defined as 0% ≤ substrate protein remaining % ≤ 80%) | B ("B" is defined as 80%< substrate protein remaining %≤ 100%) | B ("B" is defined as 80%< substrate protein remaining %≤ 100%) |
| O=C1CCN(N2C(=O)c3ccc(CN4CCC(c5ccco5)CC4)cc3C2=O)C(=O)N1 [GT-05315, 2-(2,4-dioxotetrahydropyrimidin-1(2H)-yl)-5-((4-(furan-2-yl)piperidin-1-yl)methyl)isoindoline-1,3-dione] | B ("B" is defined as 80%< substrate protein remaining %≤ 100%) | B ("B" is defined as 80%< substrate protein remaining %≤ 100%) | B ("B" is defined as 80%< substrate protein remaining %≤ 100%) | A ("A" is defined as 0% ≤ substrate protein remaining % ≤ 80%) | B ("B" is defined as 80%< substrate protein remaining %≤ 100%) | B ("B" is defined as 80%< substrate protein remaining %≤ 100%) |
| Cc1cscc1C1=CCN(Cc2ccc3c(c2)C(=O)N(N2CCC(=O)NC2=O)C3=O)CC1 [GT-05316, 2-(2,4-dioxotetrahydropyrimidin-1(2H)-yl)-5-((4-(4-methylthiophen-3-yl)-3,6-dihydropyridin-1(2H)-yl)methyl)isoindoline-1,3-dione] | B ("B" is defined as 80%< substrate protein remaining %≤ 100%) | B ("B" is defined as 80%< substrate protein remaining %≤ 100%) | B ("B" is defined as 80%< substrate protein remaining %≤ 100%) | A ("A" is defined as 0% ≤ substrate protein remaining % ≤ 80%) | B ("B" is defined as 80%< substrate protein remaining %≤ 100%) | B ("B" is defined as 80%< substrate protein remaining %≤ 100%) |
| O=C1CCN(N2C(=O)c3ccc(CN4CC=C(c5ccco5)CC4)cc3C2=O)C(=O)N1 [GT-05317, 2-(2,4-dioxotetrahydropyrimidin-1(2H)-yl)-5-((4-(furan-2-yl)-3,6-dihydropyridin-1(2H)-yl)methyl)isoindoline-1,3-dione] | B ("B" is defined as 80%< substrate protein remaining %≤ 100%) | B ("B" is defined as 80%< substrate protein remaining %≤ 100%) | B ("B" is defined as 80%< substrate protein remaining %≤ 100%) | A ("A" is defined as 0% ≤ substrate protein remaining % ≤ 80%) | B ("B" is defined as 80%< substrate protein remaining %≤ 100%) | B ("B" is defined as 80%< substrate protein remaining %≤ 100%) |
| O=C1CCN(N2C(=O)c3ccc(CN4CCN(c5ccc(Cl)cn5)CC4)cc3C2=O)C(=O)N1 [GT-05350, 5-((4-(5-chloropyridin-2-yl)piperazin-1-yl)methyl)-2-(2,4-dioxotetrahydropyrimidin-1(2H)-yl)isoindoline-1,3-dione] | B ("B" is defined as 80%< substrate protein remaining %≤ 100%) | B ("B" is defined as 80%< substrate protein remaining %≤ 100%) | B ("B" is defined as 80%< substrate protein remaining %≤ 100%) | A ("A" is defined as 0% ≤ substrate protein remaining % ≤ 80%) | B ("B" is defined as 80%< substrate protein remaining %≤ 100%) | B ("B" is defined as 80%< substrate protein remaining %≤ 100%) |
| Cc1cccc(N2CCN(Cc3ccc4c(c3)C(=O)N(N3CCC(=O)NC3=O)C4=O)CC2)n1 [GT-05352, 2-(2,4-dioxotetrahydropyrimidin-1(2H)-yl)-5-((4-(6-methylpyridin-2-yl)piperazin-1-yl)methyl)isoindoline-1,3-dione] | B ("B" is defined as 80%< substrate protein remaining %≤ 100%) | A ("A" is defined as 0% ≤ substrate protein remaining % ≤ 80%) | B ("B" is defined as 80%< substrate protein remaining %≤ 100%) | A ("A" is defined as 0% ≤ substrate protein remaining % ≤ 80%) | B ("B" is defined as 80%< substrate protein remaining %≤ 100%) | B ("B" is defined as 80%< substrate protein remaining %≤ 100%) |
